From patent publication US12077503B2, “Substituted cyclic amides and their use as herbicides” (FMC CORPORATION, priority 2015, dated 2024)

How the values were obtained:
Assay type in all cases: in vivo
rice (Oryra sativa) = test: Test B flooded paddy test; conditions: Flood, 250 g ai/ha; 0 to 100 scale where 0 is no effect and 100 is complete control; 13 to 15 d
Method in brief: (§1)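 Rating scale 0–100 (visual, vs untreated controls) after a 13–15 d greenhouse period; application to the flood layer, 3 cm above soil and maintained; plants at 2-leaf stage when treated.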

[1] = tested on: sedge, umbrella (small-flower umbrella sedge, Cyperus difformis); test: Test B flooded paddy test; conditions: Flood, 250 g ai/ha; 0 to 100 scale where 0 is no effect and 100 is complete control; 13 to 15 d
Method in brief: as §1

[2] = tested on: barnyardgrass (Echinochloa crus-galli); test: Test B flooded paddy test; conditions: Flood, 250 g ai/ha; 0 to 100 scale where 0 is no effect and 100 is complete control; 13 to 15 d
Method in brief: as §1

[3] = tested on: ducksalad (Heteranthera limosa); test: Test B flooded paddy test; conditions: Flood, 250 g ai/ha; 0 to 100 scale where 0 is no effect and 100 is complete control; 13 to 15 d
Method in brief: as §1

corn (Zea mays) = test: Test A postemergence; conditions: postemergence
Method in brief: (§2)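 Each rating is a visual injury score from 0 to 100 given about 10 d after treatment, judged against untreated controls kept alongside in the greenhouse. In loam soil–sand blend, seeds got a preemergence directed soil spray, while postemergence plants were 2 to 10 cm tall at spraying.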

[4] = tested on: pigweed (Amaranthus retroflexus); test: Test A postemergence; conditions: postemergence
Method in brief: as §2

Kochia (Kochia scoparia) [5] = test: Test A postemergence; conditions: postemergence
Method in brief: as §2

[6] = tested on: Galium (catchweed bedstraw, Galium aparine); test: Test A postemergence; conditions: postemergence
Method in brief: as §2

[7] = tested on: barnyardgrass (Echinochloa crus-galli); test: Test A postemergence; conditions: postemergence
Method in brief: as §2

[8] = tested on: ragweed (common ragweed, Ambrosia elatior); test: Test A postemergence; conditions: postemergence
Method in brief: as §2

[9] = tested on: ryegrass, Italian (Italian ryegrass, Lolium multiflorum); test: Test A postemergence; conditions: postemergence
Method in brief: as §2

[10] = tested on: wheat (Triticum aestivum); test: Test A postemergence; conditions: postemergence
Method in brief: as §2

[11] = tested on: blackgrass (Alopecurus myosuroides); test: Test A postemergence; conditions: postemergence
Method in brief: as §2

[12] = tested on: giant foxtail (Setaria faberii); test: Test A postemergence; conditions: postemergence
Method in brief: as §2

[13] = tested on: pigweed (Amaranthus retroflexus); test: Test A preemergence
Kochia (Kochia scoparia) [14] = test: Test A preemergence
Method in brief: as §2

[15] = tested on: barnyardgrass (Echinochloa crus-galli); test: Test A preemergence
Method in brief: as §2

[16] = tested on: ragweed (common ragweed, Ambrosia elatior); test: Test A preemergence
Method in brief: as §2

[17] = tested on: ryegrass, Italian (Italian ryegrass, Lolium multiflorum); test: Test A preemergence
Method in brief: as §2

[18] = tested on: giant foxtail (Setaria faberii); test: Test A preemergence
Method in brief: as §2

[19] = 125 g ai/ha, visual injury rating on 0 to 100 scale (0 no effect, 100 complete control), approx. 10 d
[20] = 500 g ai/ha, 0 to 100 scale, 0 no effect, 100 complete control
[21] = 125 g ai/ha, preemergence, 0 to 100 scale (0 no effect, 100 complete control)
[22] = Preemergence, 500 g ai/ha, visual injury approx. 10 d

CN1CC(c2ccc(C(F)(F)F)c(F)c2)C(C(=O)Nc2ccccc2S(C)(=O)=O)C1=O (stereo not drawn) [Compound 397]
Plant response rating, Rice (rice (Oryra sativa)): 0
Plant response rating, Sedge, Umbrella [1]: 0
Plant response rating, Barnyardgrass [2]: 65
Plant response rating, Ducksalad [3]: 75
Corn plant response rating (corn (Zea mays); [19]): 50
Plant response rating, Corn (corn (Zea mays); [20]): 70
Pigweed plant response rating [4, 19]: 40
Plant response rating, Pigweed [4, 20]: 70
Kochia plant response rating (Kochia (Kochia scoparia) [5]; [19]): 20
Plant response rating, Kochia (Kochia (Kochia scoparia) [5]; [20]): 50
Galium plant response rating [6, 19]: 60
Plant response rating, Galium [6, 20]: 60
Barnyardgrass plant response rating [7, 19]: 70
Plant response rating, Barnyardgrass [7, 20]: 90
Ragweed plant response rating [8, 19]: 0
Plant response rating, Ragweed [8, 20]: 20
Ryegrass, Italian plant response rating [9, 19]: 40
Plant response rating, Ryegrass, Italian [9, 20]: 60
Wheat plant response rating [10, 19]: 40
Plant response rating, Wheat [10, 20]: 50
Blackgrass plant response rating [11, 19]: 60
Plant response rating, Blackgrass [11, 20]: 70
Foxtail, Giant plant response rating [12, 19]: 70
Plant response rating, Foxtail, Giant [12, 20]: 80
Plant response rating, Pigweed [13, 21]: 90
Pigweed plant response rating (0 to 100 scale, 0 is no effect, 100 is complete control) [13, 22]: 90
Plant response rating, Kochia (Kochia (Kochia scoparia) [14]; [21]): 70
Kochia plant response rating (0 to 100 scale, 0 is no effect, 100 is complete control) (Kochia (Kochia scoparia) [14]; [22]): 90
Plant response rating, Barnyardgrass [15, 21]: 80
Barnyardgrass plant response rating (0 to 100 scale, 0 is no effect, 100 is complete control) [15, 22]: 90
Plant response rating, Ragweed [16, 21]: 50
Ragweed plant response rating (0 to 100 scale, 0 is no effect, 100 is complete control) [16, 22]: 70
Plant response rating, Ryegrass, Italian [17, 21]: 30
Ryegrass, Italian plant response rating (0 to 100 scale, 0 is no effect, 100 is complete control) [17, 22]: 70
Plant response rating, Foxtail, Giant [18, 21]: 90
Foxtail, Giant plant response rating (0 to 100 scale, 0 is no effect, 100 is complete control) [18, 22]: 90
